Source: patent US20070259860A1, “MGluR5 modulators V” (AstraZeneca AB, priority 2006, published 2007)

Tests used:
[1] = target: T1, human mGluR5d (Homo sapiens, UniProt P41594); assay: FLIPR assay, mGluR5 antagonism in cells expressing human mGluR5d; assay type: cell-based; conditions: intracellular calcium mobilization, read-out: FLIPR hmGluR5d
T1 construct: expressed in transfected cells
Description: The properties of the compounds of the invention can be analyzed using standard assays for pharmacological activity. Examples of glutamate receptor assays are well known in the art as described in for example Aramori et al., Neuron 8:757 (1992), Tanabe et al., Neuron 8:169 (1992), Miller et al., J. Neuroscience 15: 6103 (1995), Balazs, et al., J. Neurochemistry 69:151 (1997). The methodology described in these publications is incorporated herein by reference. Conveniently, the compounds of the invention can be studied by means of an assay (FLIPR) that measures the mobilization of intracellular calcium, [Ca^2+]i in cells expressing mGluR5 or another assay (IP3) that measures inositol phosphate turnover.
Cells expressing human mGluR5d as described in WO97/05252 are seeded at a density of 100,000 cells per well on collagen coated clear bottom 96-well plates with black sides and experiments are done 24 h following seeding. All assays are done in a buffer containing 127 mM NaCl, 5 mM KCl, 2 mM MgCl2, 0.7 mM NaH2PO4, 2 mM CaCl2, 0.422 mg/ml NaHCO3, 2.4 mg/ml HEPES, 1.8 mg/ml glucose and 1 mg/ml BSA Fraction IV (pH 7.4). Cell cultures in the 96-well plates are loaded for 60 minutes in the above mentioned buffer containing 4 μM of the acetoxymethyl ester form of the fluorescent calcium indicator fluo-3 (Molecular Probes, Eugene, Oreg.) in 0.01% pluronic acid (a proprietary, non-ionic surfactant polyol—CAS Number 9003-11-6). Following the loading period the fluo-3 buffer is removed and replaced with fresh assay buffer. FLIPR experiments are done using a laser setting of 0.800 W and a 0.4 second CCD camera shutter speed with excitation and emission wavelengths of 488 nm and 562 nm, respectively. Each experiment is initiated with 160 μl of buffer present in each well of the cell plate. A 40 μl addition from the antagonist plate was followed by a 50 μL addition from the agonist plate. A 90 second interval separates the antagonist and agonist additions. The fluorescence signal is sampled 50 times at 1 second intervals followed by 3 samples at 5 second intervals immediately after each of the two additions. Responses are measured as the difference between the peak height of the response to agonist, less the background fluorescence within the sample period. IC50 determinations are made using a linear least squares fitting program.

[2] = target: hERG-encoded potassium channel (Homo sapiens, UniProt Q12809); assay: hERG IonWorks; assay type: cell-based
hERG-encoded potassium channel, sequence (Q12809 whole entry): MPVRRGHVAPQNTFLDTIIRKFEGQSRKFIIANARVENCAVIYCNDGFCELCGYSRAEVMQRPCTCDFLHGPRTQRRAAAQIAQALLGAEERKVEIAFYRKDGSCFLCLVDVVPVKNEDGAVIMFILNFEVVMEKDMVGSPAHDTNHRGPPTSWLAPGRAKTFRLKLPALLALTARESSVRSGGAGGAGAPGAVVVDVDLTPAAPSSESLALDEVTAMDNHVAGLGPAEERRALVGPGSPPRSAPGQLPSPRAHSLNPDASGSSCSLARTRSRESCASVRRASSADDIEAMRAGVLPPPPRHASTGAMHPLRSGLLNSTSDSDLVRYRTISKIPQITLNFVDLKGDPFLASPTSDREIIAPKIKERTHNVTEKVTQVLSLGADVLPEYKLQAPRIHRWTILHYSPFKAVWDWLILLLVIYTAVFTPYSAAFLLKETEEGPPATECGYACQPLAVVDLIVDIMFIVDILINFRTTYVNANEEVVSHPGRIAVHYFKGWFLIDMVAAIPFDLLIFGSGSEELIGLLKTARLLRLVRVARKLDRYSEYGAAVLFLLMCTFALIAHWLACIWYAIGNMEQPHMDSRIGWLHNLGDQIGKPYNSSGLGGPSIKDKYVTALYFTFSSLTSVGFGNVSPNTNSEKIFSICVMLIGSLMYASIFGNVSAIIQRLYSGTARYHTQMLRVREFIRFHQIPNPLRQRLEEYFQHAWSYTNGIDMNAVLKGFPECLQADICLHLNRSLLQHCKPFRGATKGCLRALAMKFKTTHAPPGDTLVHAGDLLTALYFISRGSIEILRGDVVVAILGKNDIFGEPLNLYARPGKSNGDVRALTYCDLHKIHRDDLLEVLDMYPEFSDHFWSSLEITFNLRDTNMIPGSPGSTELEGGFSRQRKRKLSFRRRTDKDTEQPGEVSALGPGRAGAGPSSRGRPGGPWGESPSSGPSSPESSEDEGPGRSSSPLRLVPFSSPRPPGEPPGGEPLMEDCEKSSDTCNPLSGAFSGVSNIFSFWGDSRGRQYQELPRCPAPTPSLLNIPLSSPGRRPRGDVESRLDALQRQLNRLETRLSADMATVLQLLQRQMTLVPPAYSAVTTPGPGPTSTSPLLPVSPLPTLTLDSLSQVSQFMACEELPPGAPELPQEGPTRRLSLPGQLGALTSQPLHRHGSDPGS

[3] = In vitro stability in human liver microsomes (CLint); assay type: in vitro ADME; conditions: pH 7.4, 0.5 mg/mL protein, 1.0 μmol/L compound, NADPH
Experimental: Rat liver microsomes are prepared from Sprague-Dawley rats liver samples. Human liver microsomes are either prepared from human liver samples or acquired from BD Gentest. The compounds are incubated at 37° C. at a total microsome protein concentration of 0.5 mg/mL in a 0.1 mol/L potassium phosphate buffer at pH 7.4, in the presence of the cofactor, NADPH (1.0 mmol/L). The initial concentration of compound is 1.0 μmol/L. Samples are taken for analysis at 5 time points, 0, 7, 15, 20 and 30 minutes after the start of the incubation. The enzymatic activity in the collected sample is immediately stopped by adding a 3.5 times volume of acetonitrile. The concentration of compound remaining in each of the collected samples is determined by means of LC-MS. The elimination rate constant (k) of the mGluR5 inhibitor is calculated as the slope of the plot of In[mGluR5 inhibitor] against incubation time (minutes). The elimination rate constant is then used to calculate the half-life (T ½) of the mGluR5 inhibitor, which is subsequently used to calculate the intrinsic clearance (CLint) of the mGluR5 inhibitor in liver microsomes as:
CLint.=(ln2×incubation volume)/(T½×protein concentration)=μl/min/mg

[4] = Determination of brain to plasma ratio in rat; assay type: in vivo; conditions: brain and plasma, female Sprague Dawley rats, read-out: Brain/Plasma Ratio of compound in Rat
Experimental: Brain to plasma ratios are estimated in female Sprague Dawley rats. The compound is dissolved in water or another appropriate vehicle. For determination of brain to plasma ratio the compound is administrated as a subcutaneous, or an intravenous bolus injection, or an intravenous infusion, or an oral administration. At a predetermined time point after the administration a blood sample is taken with cardiac puncture. The rat is terminated by cutting the heart open, and the brain is immediately retained. The blood samples are collected in heparinized tubes and centrifuged within 30 minutes, in order to separate the plasma from the blood cells. The plasma is transferred to 96-well plates and stored at −20° C. until analysis. The brains are divided in half, and each half is placed in a pre-tarred tube and stored at −20° C. until analysis. Prior to the analysis, the brain samples are thawed and 3 ml/g brain tissue of distilled water is added to the tubes. The brain samples are sonicated in an ice bath until the samples are homogenized. Both brain and plasma samples are precipitated with acetonitrile. After centrifugation, the supernatant is diluted with 0.2% formic acid. Analysis is performed on a short reversed-phase HPLC column with rapid gradient elution and MSMS detection using a triple quadrupole instrument with electrospray ionisation and Selected Reaction Monitoring (SRM) acquisition. Liquid-liquid extraction may be used as an alternative sample clean-up. The samples are extracted, by shaking, to an organic solvent after addition of a suitable buffer. An aliquot of the organic layer is transferred to a new vial and evaporated to dryness under a stream of nitrogen. After reconstitution of the residuals the samples are ready for injection onto the HPLC column.

T1 sequence (P41594 21-942 isoform P41594-3 limits assumed): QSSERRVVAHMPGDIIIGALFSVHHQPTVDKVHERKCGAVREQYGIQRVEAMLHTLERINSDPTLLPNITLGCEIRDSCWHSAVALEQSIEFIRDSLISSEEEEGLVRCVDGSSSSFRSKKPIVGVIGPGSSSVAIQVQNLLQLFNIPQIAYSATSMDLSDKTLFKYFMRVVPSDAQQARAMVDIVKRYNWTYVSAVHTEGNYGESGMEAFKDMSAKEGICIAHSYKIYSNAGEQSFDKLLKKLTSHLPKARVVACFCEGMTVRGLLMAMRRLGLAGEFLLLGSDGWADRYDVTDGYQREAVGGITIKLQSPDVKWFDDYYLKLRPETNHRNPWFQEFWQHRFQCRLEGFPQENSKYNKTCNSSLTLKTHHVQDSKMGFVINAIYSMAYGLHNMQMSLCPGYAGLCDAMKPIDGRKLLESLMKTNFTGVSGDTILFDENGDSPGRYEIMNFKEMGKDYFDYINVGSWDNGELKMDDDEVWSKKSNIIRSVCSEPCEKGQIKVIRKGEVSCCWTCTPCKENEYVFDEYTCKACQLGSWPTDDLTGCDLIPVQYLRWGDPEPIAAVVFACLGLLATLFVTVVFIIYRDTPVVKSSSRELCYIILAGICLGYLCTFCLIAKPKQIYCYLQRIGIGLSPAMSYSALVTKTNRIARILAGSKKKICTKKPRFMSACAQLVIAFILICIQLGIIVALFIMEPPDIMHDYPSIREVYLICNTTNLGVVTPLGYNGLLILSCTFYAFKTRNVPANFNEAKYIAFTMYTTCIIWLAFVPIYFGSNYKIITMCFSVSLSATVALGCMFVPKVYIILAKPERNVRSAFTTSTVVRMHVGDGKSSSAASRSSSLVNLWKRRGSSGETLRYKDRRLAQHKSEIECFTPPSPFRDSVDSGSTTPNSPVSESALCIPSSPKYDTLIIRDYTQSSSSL

IC50 [1] [nM]	microsomal CLint at 1 μmol/L [3] [µL/min/mg]	Kp [4]	Compound	hERG IonWorks [2] [µM]
37	< 12	0.005	Cc1cccc(-n2nnc(CN3CCCn4c(-c5cccnc5)nnc43)n2)c1 [Example 35.1, 3-Pyridin-3-yl-8-(2-m-tolyl-2H-tetrazol-5-ylmethyl)-5,6,7,8-tetrahydro-[1,2,4]triazolo[4,3-a]pyrimidine]	26
52	–	0.05	Clc1cccc(-c2nc(CN3CCCn4c(-c5cccnc5)nnc43)no2)c1 [Example 35.2, 8-{[5-(3-chlorophenyl)-1,2,4-oxadiazol-3-yl]methyl}-3-pyridin-3-yl-5,6,7,8-tetrahydro[1,2,4]triazolo[4,3-a]pyrimidine]	–
44	14	0.11	Clc1cccc(-c2nc(CN3CCCn4c(-c5cncnc5)nnc43)no2)c1 [Example 35.17, 8-[5-(3-Chloro-phenyl)-[1,2,4]oxadiazol-3-ylmethyl]-3-pyrimidin-5-yl-5,6,7,8-tetrahydro-[1,2,4]triazolo[4,3-a]pyrimidine]	22
34	< 12	–	C[C@H](c1cc(-c2cccc(Cl)c2)on1)N1CCCn2c(-c3cn[nH]c(=O)c3)nnc21 [Example 59.3, 5-(8-{1-[5-(3-Chloro-phenyl)-isoxazol-3-yl]-ethyl}-5,6,7,8-tetrahydro-[1,2,4]triazolo[4,3-a]pyrimidin-3-yl)-2H-pyridazin-3-one]	15
